The values that follow come from US20260199323A1, “LIGAND COMPOUNDS FOR E3 UBIQUITIN LIGASE, PROTEIN DEGRADERS DEVELOPED ON BASIS OF LIGAND COMPOUNDS, AND USES THEREOF” (GLUETACS THERAPEUTICS (SHANGHAI) CO., LTD., priority 2021, published 2026).

Read-outs that look alike come from different tables or passages of the source.

Assay [1] relates to Mino. As to the kind of experiment: CCK-8 tumor cell proliferation, Mino. The format is cell-based, Human. To be noted: for IC50: Homo sapiens, Table 18, FAK inhibitor based, Mino, read-out: IC50 inhibiting proliferation of tumor cells, Mino. The protocol: (§1) The tumor cells used herein were cultured in a cell culture medium listed in table 4 at 37° C. in an incubator with 5% CO2. Prior to experimentation, all cells used were correctly identified by STR profiling, and tested negative for mycoplasma through routine screenings.
(§2) IC50 values of the compounds of the present disclosure (including the compounds in Tables 1 and 3, and compounds of examples) were measured using the Meilun Cell Counting Kit-8 kit from Dalian Meilun Biotech Co., Ltd. Assay details are as follows: tumor cells were seeded in a 96-well plate at a density listed in Table 5. After 24 h, 100 μL of the inoculated cells were treated with 0.5 μL of the compounds of the present disclosure (including the compounds in Tables 1 and 3, and compounds of examples) at 10 different successively decreasing concentrations (starting at the highest concentration of 10 μM; 5-fold serial dilutions). After the cells were treated with the compounds of the present disclosure for a period of time, the cell viability detection reagent was added to the culture medium for cell viability assessment according to the instructions provided with the CCK-8 kit. […] The growth inhibition of the compounds of the present disclosure on cells was plotted by Prism Graphpad software, and the IC50 values of the compounds of the present disclosure were calculated therefrom.

Assay [2] deals with SW620. As to the kind of experiment: CCK-8 tumor cell proliferation, SW620. In kind it is cell-based, Human. The note with it: for IC50: Homo sapiens, SW-620. The protocol: as §1, §2
Assay [3] relates to PC-9. Briefly: CCK-8 tumor cell proliferation, PC-9. The format is cell-based, Human. The note with it: for IC50: Homo sapiens, PC-9, read-out: IC50 inhibiting proliferation of tumor cells, PC-9; for IC50 for inhibiting the proliferation of tumor cells, PC-9: Table 11, designed based on EGFR inhibitors, 96 h. The protocol:
The tumor cells used herein were cultured in a cell culture medium listed in table 4 at 37° C. in an incubator with 5% CO2.
as §2, with “After” for “IC50 values of the compounds of the present disclosure (including the compounds in Tables 1 and 3, and compounds of examples) were measured using the Meilun Cell Counting Kit-8 kit from Dalian Meilun Biotech Co., Ltd. Assay details are as follows: tumor cells were seeded in a 96-well plate at a density listed in Table 5. After”

For assay [4], the system named is MDA-MB-231. As to the kind of experiment: CCK-8 tumor cell proliferation, MDA-MB-231. Also on record: IC50 for inhibiting the proliferation of tumor cells, MDA-MB-231: scale not given here. To be noted: for IC50: Homo sapiens, MDA-MB-231, read-out: IC50 inhibiting proliferation of tumor cells, MDA-MB-231. In kind it is cell-based, Human. How it is done: as §1, §2

The subject of assay [5] is SR. As to the kind of experiment: CCK-8 tumor cell proliferation, SR. In kind it is cell-based, Human. To be noted: for IC50: Homo sapiens, SR, read-out: IC50 inhibiting proliferation of tumor cells, SR. How it is done: as §1, §2
For assay [6], the system named is CCRF-CEM. As to the kind of experiment: CCK-8 tumor cell proliferation, CCRF-CEM. In kind it is cell-based, Human. On the set-up: IC50 for inhibiting the proliferation of tumor cells, CCRF-CEM: scale not given here. To be noted: 96 h. How it is done: as §1, §2
Assay [7] concerns MM.1S. As to the kind of experiment: CCK-8 tumor cell proliferation, MM.1S. In kind it is cell-based. To be noted: Table 7, designed based on BTK inhibitors; 72 h. How it is done: as §1, §2
For assay [8], the system named is CAL-62. Briefly: CCK-8 tumor cell proliferation, CAL-62. The format is cell-based, Human. To be noted: Homo sapiens; Table 18, FAK inhibitor based; CAL-62; read-out: IC50 inhibiting proliferation of tumor cells, CAL-62. How it is done:
as §1, §2

The mark [9] stands for this setting: Table 18, FAK inhibitor based, SW620, read-out: IC50 inhibiting proliferation of tumor cells, SW620.

Take `CNC(=O)c1ccc(Nc2ncc(C(F)(F)F)c(NCc3nccnc3N(C)S(C)(=O)=O)n2)cc1` [Defactinib, reference compound]: the IC50 in assay [1] was 500 to 1000 nM; in assay [2] (setting [9]), 1000 to 5000 nM; in assay [3] (Table 18, FAK inhibitor based) it was 1000 to 5000 nM.

`Cc1nc(Nc2ncc(C(=O)Nc3c(C)cccc3Cl)s2)cc(N2CCC(N3CCN(Cc4ccc5c(c4)CN(C4CCC(=O)NC4=O)C5=O)CC3)CC2)n1` (stereo not shown) [GT-03476, N-(2-chloro-6-methylphenyl)-2-((6-(4-(4-((2-(2,6-dioxopiperidin-3-yl)-1-oxoisoindolin-5-yl)methyl)piperazin-1-yl)piperidin-1-yl)-2-methylpyrimidin-4-yl)amino)thiazole-5-carboxamide]: the “IC50 for inhibiting the proliferation of tumor cells, Mino” value in assay [1] (Table 13, designed based on BCR-ABL inhibitors, 72 h) was “A+”.

Regarding `Cc1cc(Nc2ncc(Cl)c(Nc3ccccc3S(=O)(=O)C(C)C)n2)c(OC(C)C)cc1N1CCN(Cc2ccc3c(c2)CN(C2CCC(=O)NC2=O)C3=O)CC1` (stereo not shown) [GT-03529, 3-(5-((4-(4-((5-chloro-4-((2-(isopropylsulfonyl)phenyl)amino)pyrimidin-2-yl)amino)-5-isopropoxy-2-methylphenyl)piperazin-1-yl)methyl)-1-oxoisoindolin-2-yl)piperidine-2,6-dione], the IC50 in assay [4] (Table 15, ALK inhibitor based) is 100 to 500 nM; in assay [5] (Table 15, ALK inhibitor based) it was below 50 nM; in assay [3] (Table 15, ALK inhibitor based) it was 100 to 500 nM.

On to `Cc1cc(Nc2ncc(Cl)c(Nc3ccccc3S(=O)(=O)C(C)C)n2)c(OC(C)C)cc1N1CCC(N2CCN(Cc3ccc4c(c3)CN(C3CCC(=O)NC3=O)C4=O)CC2)CC1` (stereo not shown) [GT-03531, 3-(5-((4-(1-(4-((5-chloro-4-((2-(isopropylsulfonyl)phenyl)amino)pyrimidin-2-yl)amino)-5-isopropoxy-2-methylphenyl)piperidin-4-yl)piperazin-1-yl)methyl)-1-oxoisoindolin-2-yl)piperidine-2,6-dione], for which the IC50 is 100 to 500 nM in assay [4] (Table 15, ALK inhibitor based); below 50 nM in assay [5] (Table 15, ALK inhibitor based); 1000 to 5000 nM in assay [3] (Table 15, ALK inhibitor based).

`Nc1ncnc2c1c(-c1ccc(Oc3ccccc3)cc1)nn2C1CCN(Cc2cc3c(cc2F)C(=O)N(C2CCC(=O)NC2=O)C3)CC1` (stereo not shown) [GT-03605, 3-(5-((4-(4-amino-3-(4-phenoxyphenyl)-1H-pyrazolo[3,4-d]pyrimidin-1-yl)piperidin-1-yl)methyl)-6-fluoro-1-oxoisoindolin-2-yl)piperidine-2,6-dione]: the “IC50 for inhibiting the proliferation of tumor cells, CCRF-CEM” value in assay [6] (Table 7, designed based on BTK inhibitors) was “A+”. Besides, the “IC50 for inhibiting the proliferation of tumor cells, MDA-MB-231” value in assay [4] (Table 7, designed based on BTK inhibitors, 96 h) is reported as “A+”. Besides, the “IC50 for inhibiting the proliferation of tumor cells, MM.1S” value in assay [7] is given as “A+”.

`CN(c1nccnc1CNc1nc(Nc2ccc(N3CCN(Cc4ccc5c(c4)CN(C4CCC(=O)NC4=O)C5=O)CC3)cc2)ncc1C(F)(F)F)S(C)(=O)=O` (stereo not shown) [GT-03672, N-(3-(((2-((4-(4-((2-(2,6-dioxopiperidin-3-yl)-1-oxoisoindolin-5-yl)methyl)piperazin-1-yl)phenyl)amino)-5-(trifluoromethyl)pyrimidin-4-yl)amino)methyl)pyrazin-2-yl)-N-methylmethanesulfonamide]: the IC50 in assay [4] (Table 18, FAK inhibitor based) was 500 to 1000 nM; in assay [5] (Table 18, FAK inhibitor based), 500 to 1000 nM; in assay [1] it was 500 to 1000 nM; in assay [2] (setting [9]) it was 1000 to 5000 nM; in assay [3] (Table 18, FAK inhibitor based), 1000 to 5000 nM; in assay [8] it was 500 to 1000 nM.

Regarding `CN(Cc1ccc2c(c1)CN(C1CCC(=O)NC1=O)C2=O)C1CCN(c2ccc(Nc3ncc4nc(Nc5ccccc5)n(C5CCCC5)c4n3)cc2)CC1` (stereo not shown) [GT-03685, 3-(5-(((1-(4-((9-cyclopentyl-8-(phenylamino)-9H-purin-2-yl)amino)phenyl)piperidin-4-yl)(methyl)amino)methyl)-1-oxoisoindolin-2-yl)piperidine-2,6-dione], the “IC50 for inhibiting the proliferation of tumor cells, CCRF-CEM” value in assay [6] (Table 11, designed based on EGFR inhibitors) is reported as “A+”. In addition, the “IC50 for inhibiting the proliferation of tumor cells, PC-9” value in assay [3] is “A+”.

`CNC(=O)c1ccccc1Nc1cc(Nc2ccc(N3CCN(Cc4ccc5c(c4F)CN(C4CCC(=O)NC4=O)C5=O)CC3)cc2OC)ncc1C(F)(F)F` (stereo not shown) [GT-03712, 2-((2-((4-(4-((2-(2,6-dioxopiperidin-3-yl)-4-fluoro-1-oxoisoindolin-5-yl)methyl)piperazin-1-yl)-2-methoxyphenyl)amino)-5-(trifluoromethyl)pyridin-4-yl)amino)-N-methylbenzamide]: the IC50 in assay [4] (Table 18, FAK inhibitor based) is below 50 nM; in assay [1], 100 to 500 nM; in assay [2] (setting [9]), below 50 nM; in assay [3] (Table 18, FAK inhibitor based), 1000 to 5000 nM.

For the compound `Cc1nc2c(F)cc(-c3nc(Nc4ccc(N5CCC(N6CCN(Cc7ccc8c(c7)CN(C7CCC(=O)NC7=O)C8=O)CC6)CC5)cn4)ncc3F)cc2n1C(C)C` (stereo not shown) [GT-03719, 3-(5-((4-(1-(6-((5-fluoro-4-(4-fluoro-1-isopropyl-2-methyl-1H-benzo[d]imidazol-6-yl)pyrimidin-2-yl)amino)pyridin-3-yl)piperidin-4-yl)piperazin-1-yl)methyl)-1-oxoisoindolin-2-yl)piperidine-2,6-dione], in assay [6] (Table 14, designed based on CDK4/6 inhibitors), the “IC50 for inhibiting the proliferation of tumor cells, CCRF-CEM” value is “A+”. Besides, in assay [5] (Table 14, designed based on CDK4/6 inhibitors, 72 h), the “IC50 for inhibiting the proliferation of tumor cells, SR” value was “A+”. For the same compound, the “IC50 for inhibiting the proliferation of tumor cells, SW620” value in assay [2] (Table 14, designed based on CDK4/6 inhibitors, 96 h) is recorded as “A+”.

Turning to `CNC(=O)c1ccccc1Nc1cc(Nc2ccc(N3CCC(N(C)Cc4ccc5c(c4F)CN(C4CCC(=O)NC4=O)C5=O)CC3)cc2OC)ncc1C(F)(F)F` (stereo not shown) [GT-03728, 2-((2-((4-(4-(((2-(2,6-dioxopiperidin-3-yl)-4-fluoro-1-oxoisoindolin-5-yl)methyl)(methyl)amino)piperidin-1-yl)-2-methoxyphenyl)amino)-5-(trifluoromethyl)pyridin-4-yl)amino)-N-methylbenzamide], the IC50 in assay [4] (Table 18, FAK inhibitor based) was below 50 nM; in assay [5] (Table 18, FAK inhibitor based), below 50 nM; in assay [1], 1000 to 5000 nM; in assay [2] (setting [9]) it was 100 to 500 nM; in assay [3] (Table 18, FAK inhibitor based), 1000 to 5000 nM; in assay [8] it was 50 to 100 nM.

Regarding `CNC(=O)c1ccccc1Nc1cc(Nc2ccc(N3CCC(N(C)Cc4ccc5c(c4)C(=O)N(C4CCC(=O)NC4=O)C5=O)CC3)cc2OC)ncc1C(F)(F)F` (stereo not shown) [GT-03732, 2-((2-((4-(4-(((2-(2,6-dioxopiperidin-3-yl)-1,3-dioxoisoindolin-5-yl)methyl)(methyl)amino)piperidin-1-yl)-2-methoxyphenyl)amino)-5-(trifluoromethyl)pyridin-4-yl)amino)-N-methylbenzamide], the IC50 in assay [5] (Table 18, FAK inhibitor based) lay within 100 to 500 nM; in assay [2] (setting [9]), 1000 to 5000 nM; in assay [3] (Table 18, FAK inhibitor based) it was 50 to 100 nM.

As for `O=C1CCC(N2Cc3cc(CN4CCN(c5ccc(Nc6ncc7nc(Nc8ccccc8)n(C8CCCC8)c7n6)cc5)CC4)c(F)cc3C2=O)C(=O)N1` (stereo not shown) [GT-03736, 3-(5-((4-(4-((9-cyclopentyl-8-(phenylamino)-9H-purin-2-yl)amino)phenyl)piperazin-1-yl)methyl)-6-fluoro-1-oxoisoindolin-2-yl)piperidine-2,6-dione], the “IC50 for inhibiting the proliferation of tumor cells, PC-9” value in assay [3] is “A+”.

As for `O=C1CCC(N2Cc3cc(CN4CCN(C5CCN(c6ccc(Nc7ncc8nc(Nc9ccccc9)n(C9CCCC9)c8n7)cc6)CC5)CC4)ccc3C2=O)C(=O)N1` (stereo not shown) [GT-03808, 3-(5-((4-(1-(4-((9-cyclopentyl-8-(phenylamino)-9H-purin-2-yl)amino)phenyl)piperidin-4-yl)piperazin-1-yl)methyl)-1-oxoisoindolin-2-yl)piperidine-2,6-dione], in assay [3], the “IC50 for inhibiting the proliferation of tumor cells, PC-9” value was “A+”.

For `CN(C)C(=O)c1cc2cnc(Nc3ccc(N4CCNCC4)cn3)nc2n1C1CCCC1` [Ribociclib, reference compound], in assay [2] (Table 14, designed based on CDK4/6 inhibitors, 96 h, read-out: IC50 for inhibiting the proliferation of tumor cells, SW620), the IC50 was above 10000 nM.
